{
  "source": "ChEMBL document CHEMBL5058641",
  "about": "“Data for DCP probe TP-050” (2022)",
  "key": {"[1]": {"target": "D(4) dopamine receptor (Homo sapiens) (UniProt P21917)", "details": "Compound concentration 10.0 uM; call rule not given here"}, "D(1A) dopamine receptor [2]": {"target": "T1, D(1A) dopamine receptor (Homo sapiens, UniProt P21728)", "T1 sequence (P21728 whole entry)": "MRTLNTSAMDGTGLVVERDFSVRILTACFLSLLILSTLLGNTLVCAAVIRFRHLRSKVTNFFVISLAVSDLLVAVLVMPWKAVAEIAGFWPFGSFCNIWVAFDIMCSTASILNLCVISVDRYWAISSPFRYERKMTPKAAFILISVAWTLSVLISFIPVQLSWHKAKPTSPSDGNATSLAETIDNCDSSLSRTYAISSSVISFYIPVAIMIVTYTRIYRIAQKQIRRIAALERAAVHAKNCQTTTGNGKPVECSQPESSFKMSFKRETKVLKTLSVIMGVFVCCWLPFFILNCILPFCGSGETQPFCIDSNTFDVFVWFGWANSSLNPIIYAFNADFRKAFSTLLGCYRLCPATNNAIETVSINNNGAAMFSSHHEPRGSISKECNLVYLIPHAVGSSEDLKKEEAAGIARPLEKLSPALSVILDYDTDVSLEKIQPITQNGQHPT", "details": "Compound concentration 10.0 uM"}, "Mu-type opioid receptor [3]": {"target": "T2, Mu-type opioid receptor (Homo sapiens, UniProt P35372)", "T2 sequence (P35372 whole entry)": "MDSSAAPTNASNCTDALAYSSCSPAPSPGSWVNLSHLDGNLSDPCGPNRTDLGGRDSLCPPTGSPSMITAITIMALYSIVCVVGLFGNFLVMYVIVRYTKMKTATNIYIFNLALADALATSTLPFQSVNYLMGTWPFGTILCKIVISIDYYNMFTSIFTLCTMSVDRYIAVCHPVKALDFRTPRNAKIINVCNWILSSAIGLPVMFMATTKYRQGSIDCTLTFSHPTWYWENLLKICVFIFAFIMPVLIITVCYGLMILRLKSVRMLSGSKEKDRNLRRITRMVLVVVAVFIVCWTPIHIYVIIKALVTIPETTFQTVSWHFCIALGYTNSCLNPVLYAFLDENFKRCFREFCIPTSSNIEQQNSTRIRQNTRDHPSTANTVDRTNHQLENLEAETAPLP", "assay": "OPRM1 Eurofins SafetyScan (Receptor)"}, "[4]": {"target": "T3, 5-hydroxytryptamine receptor 2B (Homo sapiens, UniProt P41595)", "T3 sequence (P41595 whole entry)": "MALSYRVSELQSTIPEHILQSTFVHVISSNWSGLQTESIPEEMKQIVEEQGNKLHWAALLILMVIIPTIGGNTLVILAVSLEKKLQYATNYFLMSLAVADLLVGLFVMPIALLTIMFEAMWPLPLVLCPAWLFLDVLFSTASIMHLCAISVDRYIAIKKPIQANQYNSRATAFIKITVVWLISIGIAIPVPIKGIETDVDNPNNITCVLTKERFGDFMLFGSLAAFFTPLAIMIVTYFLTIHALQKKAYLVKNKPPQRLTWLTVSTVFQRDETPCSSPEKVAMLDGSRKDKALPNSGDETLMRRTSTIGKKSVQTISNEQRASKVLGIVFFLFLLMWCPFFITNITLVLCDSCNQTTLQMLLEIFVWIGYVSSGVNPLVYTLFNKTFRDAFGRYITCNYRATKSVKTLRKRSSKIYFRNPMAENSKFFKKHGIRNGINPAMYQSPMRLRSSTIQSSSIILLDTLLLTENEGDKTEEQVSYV", "details": "Compound concentration 10.0 uM"}, "Histamine H1 receptor": {"target": "Histamine H1 receptor (Homo sapiens, UniProt P35367)", "assay": "HRH1 Eurofins SafetyScan (Receptor)"}, "[5]": {"target": "Glutamate receptor ionotropic, NMDA 2C (Homo sapiens, UniProt Q05586+Q14957)", "assay": "GluN2C-containing NMDA receptor (Ca2+ influx) assay (EC50)"}, "[6]": {"target": "Beta-3 adrenergic receptor (Homo sapiens) (UniProt P13945)", "details": "Compound concentration 10.0 uM"}, "[7]": {"target": "Muscarinic acetylcholine receptor M4 (Homo sapiens) (UniProt P08173)", "details": "Compound concentration 10.0 uM"}, "[8]": {"target": "Glutamate receptor ionotropic, NMDA 1 (Homo sapiens, UniProt Q05586+Q13224)", "assay": "NMDAR (1A/2B) Eurofins SafetyScreen (Other)", "set-up": "species or system Blocker"}, "[9]": {"target": "5-hydroxytryptamine receptor 1A (Homo sapiens, UniProt P08908)", "sequence (P08908 whole entry)": "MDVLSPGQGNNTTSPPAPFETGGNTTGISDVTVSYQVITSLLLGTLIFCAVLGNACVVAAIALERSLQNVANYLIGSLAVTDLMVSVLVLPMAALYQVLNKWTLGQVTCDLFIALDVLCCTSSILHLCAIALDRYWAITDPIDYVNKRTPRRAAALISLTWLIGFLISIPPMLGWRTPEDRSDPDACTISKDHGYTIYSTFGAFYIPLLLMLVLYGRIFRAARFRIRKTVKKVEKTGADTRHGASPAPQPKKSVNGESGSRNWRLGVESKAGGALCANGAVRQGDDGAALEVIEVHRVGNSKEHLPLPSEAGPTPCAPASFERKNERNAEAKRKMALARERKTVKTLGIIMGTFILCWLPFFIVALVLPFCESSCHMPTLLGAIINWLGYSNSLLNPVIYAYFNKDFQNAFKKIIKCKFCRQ", "assay": "HTR1A Eurofins SafetyScan (Receptor)"}, "[10]": {"target": "Neuronal acetylcholine receptor; alpha4/beta2 (Homo sapiens, UniProt P17787+P43681)", "assay": "nAChR(a4/b2) Eurofins SafetyScreen (Other)", "set-up": "species or system Blocker"}, "[11]": {"target": "5-hydroxytryptamine receptor 5A (Homo sapiens) (UniProt P47898)", "details": "Compound concentration 10.0 uM"}, "Insulin receptor": {"target": "Insulin receptor (Homo sapiens, UniProt P06213)", "assay": "INSR Eurofins SafetyScreen (Other)", "set-up": "species or system Inhibitor"}, "[12]": {"target": "Muscarinic acetylcholine receptor M2 (Homo sapiens) (UniProt P08172)", "details": "Compound concentration 10.0 uM"}, "[13]": {"target": "T3, 5-hydroxytryptamine receptor 2B", "assay": "HTR2B Eurofins SafetyScan (Receptor)"}, "[14]": {"assay": "AMPA receptor scintillation proximity binding assay", "set-up": "species or system Homo sapiens"}, "[15]": {"target": "3',5'-cyclic-AMP phosphodiesterase 4D (Homo sapiens, UniProt Q08499)", "assay": "PDE4D2 Eurofins SafetyScreen (Other)", "set-up": "species or system Inhibitor"}, "[16]": {"target": "Potassium voltage-gated channel subfamily KQT member 1 (Homo sapiens, UniProt P51787)", "assay": "KvLQT1/minK Eurofins SafetyScreen (Other)", "set-up": "species or system Blocker"}, "[17]": {"target": "Gamma-aminobutyric acid receptor subunit alpha-1 (Homo sapiens, UniProt P14867)", "assay": "GABAA Eurofins SafetyScreen (Other)", "set-up": "species or system Blocker"}, "[18]": {"target": "Histamine H4 receptor (Homo sapiens) (UniProt Q9H3N8)", "details": "Compound concentration 10.0 uM"}, "[19]": {"target": "Prostaglandin G/H synthase 1 (Homo sapiens, UniProt P23219)", "assay": "COX1 Eurofins SafetyScreen (Other)", "set-up": "species or system Inhibitor"}, "Cannabinoid receptor 1": {"target": "Cannabinoid receptor 1 (Homo sapiens, UniProt P21554)", "sequence (P21554 whole entry)": "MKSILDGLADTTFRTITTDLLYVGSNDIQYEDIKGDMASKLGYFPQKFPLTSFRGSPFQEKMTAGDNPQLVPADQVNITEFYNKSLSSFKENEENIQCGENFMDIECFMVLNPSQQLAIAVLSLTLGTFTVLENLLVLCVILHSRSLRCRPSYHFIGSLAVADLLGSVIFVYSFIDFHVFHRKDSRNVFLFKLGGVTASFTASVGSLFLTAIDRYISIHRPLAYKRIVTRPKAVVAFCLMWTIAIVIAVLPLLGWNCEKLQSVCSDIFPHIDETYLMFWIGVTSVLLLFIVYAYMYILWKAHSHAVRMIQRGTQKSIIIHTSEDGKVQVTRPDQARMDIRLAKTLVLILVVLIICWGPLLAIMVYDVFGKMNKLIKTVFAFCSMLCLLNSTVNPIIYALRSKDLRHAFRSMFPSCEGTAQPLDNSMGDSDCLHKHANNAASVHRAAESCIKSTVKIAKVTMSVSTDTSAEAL", "assay": "CNR1 Eurofins SafetyScan (Receptor)"}, "[20]": {"target": "5-hydroxytryptamine receptor 2C (Homo sapiens) (UniProt P28335)", "details": "Compound concentration 10.0 uM"}, "[21]": {"target": "Sodium channel protein type 5 subunit alpha (Homo sapiens, UniProt Q14524)", "assay": "NAV1.5 Eurofins SafetyScreen (Other)", "set-up": "species or system Blocker"}, "[22]": {"target": "Muscarinic acetylcholine receptor M1 (Homo sapiens) (UniProt P11229)", "details": "Compound concentration 10.0 uM"}, "[23]": {"target": "Alpha-1D adrenergic receptor (Homo sapiens) (UniProt P25100)", "details": "Compound concentration 10.0 uM"}, "[24]": {"target": "T4, 5-hydroxytryptamine receptor 2A (Homo sapiens, UniProt P28223)", "T4 sequence (P28223 whole entry)": "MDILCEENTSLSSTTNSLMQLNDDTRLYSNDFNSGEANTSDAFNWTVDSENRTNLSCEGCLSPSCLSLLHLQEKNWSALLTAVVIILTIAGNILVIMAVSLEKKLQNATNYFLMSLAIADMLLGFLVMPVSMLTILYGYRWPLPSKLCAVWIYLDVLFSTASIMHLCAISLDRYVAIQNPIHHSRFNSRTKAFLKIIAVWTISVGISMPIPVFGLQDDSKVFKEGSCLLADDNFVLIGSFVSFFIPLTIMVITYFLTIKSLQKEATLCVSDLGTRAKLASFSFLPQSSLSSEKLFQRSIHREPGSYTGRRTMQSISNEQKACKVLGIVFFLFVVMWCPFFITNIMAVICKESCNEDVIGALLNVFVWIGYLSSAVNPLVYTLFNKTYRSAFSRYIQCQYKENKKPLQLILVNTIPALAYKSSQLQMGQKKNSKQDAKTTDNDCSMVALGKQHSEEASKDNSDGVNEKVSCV", "assay": "HTR2A Eurofins SafetyScan (Receptor)"}, "[25]": {"target": "T5, Delta-type opioid receptor (Homo sapiens, UniProt P41143)", "T5 sequence (P41143 whole entry)": "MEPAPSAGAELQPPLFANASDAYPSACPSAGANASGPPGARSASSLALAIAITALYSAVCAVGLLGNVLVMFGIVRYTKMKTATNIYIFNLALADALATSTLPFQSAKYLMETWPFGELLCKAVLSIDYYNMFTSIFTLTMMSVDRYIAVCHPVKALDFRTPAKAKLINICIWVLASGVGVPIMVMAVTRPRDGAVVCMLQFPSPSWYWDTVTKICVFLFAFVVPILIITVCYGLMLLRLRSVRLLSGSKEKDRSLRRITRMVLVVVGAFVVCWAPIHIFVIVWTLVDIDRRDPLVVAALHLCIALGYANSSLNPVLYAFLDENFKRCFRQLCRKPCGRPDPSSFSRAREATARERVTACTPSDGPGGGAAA", "details": "Compound concentration 10.0 uM"}, "[26]": {"target": "Sodium-dependent noradrenaline transporter (Homo sapiens, UniProt P23975)", "assay": "NET Eurofins SafetyScreen (Other)", "set-up": "species or system Blocker"}, "D(2) dopamine receptor": {"target": "D(2) dopamine receptor (Homo sapiens, UniProt P14416)", "details": "Compound concentration 10.0 uM"}, "D(1A) dopamine receptor [27]": {"target": "T1, D(1A) dopamine receptor", "assay": "DRD1 Eurofins SafetyScan (Receptor)"}, "Vasopressin V1a receptor": {"target": "Vasopressin V1a receptor (Homo sapiens, UniProt P37288)", "assay": "AVPR1A Eurofins SafetyScan (Receptor)"}, "[28]": {"target": "T4, 5-hydroxytryptamine receptor 2A", "details": "Compound concentration 10.0 uM"}, "[29]": {"target": "Muscarinic acetylcholine receptor M3 (Homo sapiens, UniProt P20309)", "details": "Compound concentration 10.0 uM"}, "[30]": {"target": "5-hydroxytryptamine receptor 1D (Homo sapiens, UniProt P28221)", "sequence (P28221 whole entry)": "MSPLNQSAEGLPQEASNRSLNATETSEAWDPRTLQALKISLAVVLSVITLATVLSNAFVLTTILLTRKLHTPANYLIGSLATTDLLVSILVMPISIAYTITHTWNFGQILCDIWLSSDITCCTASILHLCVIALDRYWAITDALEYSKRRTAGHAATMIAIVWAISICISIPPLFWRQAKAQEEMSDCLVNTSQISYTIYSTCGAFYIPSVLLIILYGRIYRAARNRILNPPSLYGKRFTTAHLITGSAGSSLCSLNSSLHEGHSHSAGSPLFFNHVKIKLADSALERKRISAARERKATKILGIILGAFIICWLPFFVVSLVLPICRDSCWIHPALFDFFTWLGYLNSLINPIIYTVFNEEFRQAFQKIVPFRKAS", "assay": "GPCRScan assay: inhibition of 5-HT1D", "set-up": "radioligand conc. used [nm] 1.0 – 2.0, parental cells HEKT"}, "[31]": {"target": "5-hydroxytryptamine receptor 3A (Homo sapiens, UniProt P46098)", "assay": "HTR3A Eurofins SafetyScreen (Other)", "set-up": "species or system Blocker"}, "[32]": {"target": "Beta-1 adrenergic receptor (Homo sapiens, UniProt P08588)", "details": "Compound concentration 10.0 uM"}, "[33]": {"target": "Cholecystokinin receptor type A (Homo sapiens, UniProt P32238)", "sequence (P32238 whole entry)": "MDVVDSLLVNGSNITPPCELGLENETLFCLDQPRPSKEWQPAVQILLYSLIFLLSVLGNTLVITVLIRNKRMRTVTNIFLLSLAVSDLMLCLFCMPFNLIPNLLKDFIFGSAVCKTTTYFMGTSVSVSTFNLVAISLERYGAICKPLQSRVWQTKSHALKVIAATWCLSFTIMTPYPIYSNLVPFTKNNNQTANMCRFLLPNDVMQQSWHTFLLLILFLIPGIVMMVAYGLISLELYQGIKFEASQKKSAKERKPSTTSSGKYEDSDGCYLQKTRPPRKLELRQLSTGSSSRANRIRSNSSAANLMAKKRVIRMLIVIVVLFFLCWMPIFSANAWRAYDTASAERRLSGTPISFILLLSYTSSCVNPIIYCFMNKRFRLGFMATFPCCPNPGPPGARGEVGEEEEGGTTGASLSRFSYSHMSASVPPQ", "assay": "CCKAR Eurofins SafetyScan (Receptor)"}, "Androgen receptor": {"target": "Androgen receptor (Homo sapiens, UniProt P10275)", "sequence (P10275 whole entry)": "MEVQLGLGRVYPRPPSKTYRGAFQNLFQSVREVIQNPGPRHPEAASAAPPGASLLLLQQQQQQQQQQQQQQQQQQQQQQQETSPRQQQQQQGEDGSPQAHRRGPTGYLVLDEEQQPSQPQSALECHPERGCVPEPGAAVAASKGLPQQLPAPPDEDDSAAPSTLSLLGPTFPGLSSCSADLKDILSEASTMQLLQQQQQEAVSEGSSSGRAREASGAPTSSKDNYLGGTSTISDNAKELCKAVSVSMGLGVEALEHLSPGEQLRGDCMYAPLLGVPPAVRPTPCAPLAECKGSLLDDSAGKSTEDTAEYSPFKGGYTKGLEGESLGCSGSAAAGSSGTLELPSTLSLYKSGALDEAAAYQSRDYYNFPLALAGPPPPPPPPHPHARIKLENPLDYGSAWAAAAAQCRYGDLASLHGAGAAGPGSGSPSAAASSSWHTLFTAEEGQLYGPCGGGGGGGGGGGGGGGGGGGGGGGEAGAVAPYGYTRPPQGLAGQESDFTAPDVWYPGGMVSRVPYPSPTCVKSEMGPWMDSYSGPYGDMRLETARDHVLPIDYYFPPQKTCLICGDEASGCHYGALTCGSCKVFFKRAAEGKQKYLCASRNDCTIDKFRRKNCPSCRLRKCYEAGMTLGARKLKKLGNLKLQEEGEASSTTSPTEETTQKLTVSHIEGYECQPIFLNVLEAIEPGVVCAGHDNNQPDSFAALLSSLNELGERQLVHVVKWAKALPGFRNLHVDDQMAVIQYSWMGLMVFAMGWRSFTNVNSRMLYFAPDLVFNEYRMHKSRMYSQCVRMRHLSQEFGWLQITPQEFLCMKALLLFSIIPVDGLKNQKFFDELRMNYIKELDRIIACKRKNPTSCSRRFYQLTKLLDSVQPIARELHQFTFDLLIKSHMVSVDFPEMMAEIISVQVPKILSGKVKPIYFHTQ", "assay": "AR Eurofins SafetyScan (Receptor)"}, "[34]": {"target": "Prostaglandin G/H synthase 2 (Homo sapiens, UniProt P35354)", "assay": "COX2 Eurofins SafetyScreen (Other)", "set-up": "species or system Inhibitor"}, "[35]": {"target": "Glutamate receptor ionotropic, NMDA 2D (Homo sapiens, UniProt O15399+Q05586)", "assay": "GluN2D-containing NMDA receptor (Ca2+ influx) assay (EC50)"}, "Mu-type opioid receptor [36]": {"target": "T2, Mu-type opioid receptor", "details": "Compound concentration 10.0 uM"}, "[37]": {"target": "Amine oxidase [flavin-containing] A (Homo sapiens, UniProt P21397)", "assay": "MAOA Eurofins SafetyScreen (Other)", "set-up": "species or system Inhibitor"}, "[38]": {"target": "Beta-2 adrenergic receptor (Homo sapiens, UniProt P07550)", "details": "Compound concentration 10.0 uM"}, "[39]": {"target": "T5, Delta-type opioid receptor", "assay": "OPRD1 Eurofins SafetyScan (Receptor)"}, "[40]": {"target": "Sigma intracellular receptor 2 (Homo sapiens) (UniProt Q5BJF2)", "sequence (Q5BJF2 whole entry)": "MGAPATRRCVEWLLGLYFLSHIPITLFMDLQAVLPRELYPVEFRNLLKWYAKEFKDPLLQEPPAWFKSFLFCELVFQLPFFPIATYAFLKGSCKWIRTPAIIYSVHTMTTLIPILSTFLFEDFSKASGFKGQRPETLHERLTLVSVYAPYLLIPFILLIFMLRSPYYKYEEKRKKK", "details": "Compound concentration 10.0 uM"}},
  "data": [
    {"compound": "Cc1cn([C@H](C)CC#N)c(=O)c2cc(Cn3nc(C(F)F)cc3Cl)nn12", "values": [
      {"measurement": "inhibition", "setting": "[1]", "value": 48.5, "unit": "%"},
      {"measurement": "inhibition", "setting": "D(1A) dopamine receptor [2]", "value": 1.34, "unit": "%"},
      {"measurement": "EC50", "setting": "Mu-type opioid receptor [3]", "value": "> 10", "unit": "µM"},
      {"measurement": "IC50", "setting": "Mu-type opioid receptor [3]", "value": "> 10", "unit": "µM"},
      {"measurement": "inhibition", "setting": "[4]", "value": 42.7, "unit": "%"},
      {"measurement": "EC50", "setting": "Histamine H1 receptor", "value": "> 10", "unit": "µM"},
      {"measurement": "IC50", "setting": "Histamine H1 receptor", "value": "> 10", "unit": "µM"},
      {"measurement": "EC50", "setting": "[5]", "value": "> 30 µM (not active)"},
      {"measurement": "inhibition", "setting": "[6]", "value": -3.8, "unit": "%"},
      {"measurement": "inhibition", "setting": "[7]", "value": 4.14, "unit": "%"},
      {"measurement": "IC50", "setting": "[8]", "value": "> 10", "unit": "µM"},
      {"measurement": "EC50", "setting": "[9]", "value": "> 10", "unit": "µM"},
      {"measurement": "IC50", "setting": "[9]", "value": "> 10", "unit": "µM"},
      {"measurement": "IC50", "setting": "[10]", "value": "> 10", "unit": "µM"},
      {"measurement": "inhibition", "setting": "[11]", "value": 7.54, "unit": "%"},
      {"measurement": "IC50", "setting": "Insulin receptor", "value": "> 10", "unit": "µM"},
      {"measurement": "inhibition", "setting": "[12]", "value": 4.32, "unit": "%"},
      {"measurement": "EC50", "setting": "[13]", "value": "> 10", "unit": "µM"},
      {"measurement": "IC50", "setting": "[13]", "value": "> 10", "unit": "µM"},
      {"measurement": "IC50", "setting": "[14]", "value": "> 30 µM (not active)"},
      {"measurement": "IC50", "setting": "[15]", "value": "> 10", "unit": "µM"},
      {"measurement": "IC50", "setting": "[16]", "value": "> 10", "unit": "µM"},
      {"measurement": "IC50", "setting": "[17]", "value": "> 10", "unit": "µM"},
      {"measurement": "inhibition", "setting": "[18]", "value": 25.2, "unit": "%"},
      {"measurement": "IC50", "setting": "[19]", "value": "> 10", "unit": "µM"},
      {"measurement": "EC50", "setting": "Cannabinoid receptor 1", "value": "> 10", "unit": "µM"},
      {"measurement": "IC50", "setting": "Cannabinoid receptor 1", "value": "> 10", "unit": "µM"},
      {"measurement": "inhibition", "setting": "[20]", "value": 13.1, "unit": "%"},
      {"measurement": "IC50", "setting": "[21]", "value": "> 10", "unit": "µM"},
      {"measurement": "inhibition", "setting": "[22]", "value": 12.5, "unit": "%"},
      {"measurement": "inhibition", "setting": "[23]", "value": 10.6, "unit": "%"},
      {"measurement": "EC50", "setting": "[24]", "value": "> 10", "unit": "µM"},
      {"measurement": "IC50", "setting": "[24]", "value": "> 10", "unit": "µM"},
      {"measurement": "inhibition", "setting": "[25]", "value": -4.95, "unit": "%"},
      {"measurement": "IC50", "setting": "[26]", "value": "> 10", "unit": "µM"},
      {"measurement": "inhibition", "setting": "D(2) dopamine receptor", "value": 9.18, "unit": "%"},
      {"measurement": "EC50", "setting": "D(1A) dopamine receptor [27]", "value": "> 10", "unit": "µM"},
      {"measurement": "IC50", "setting": "D(1A) dopamine receptor [27]", "value": "> 10", "unit": "µM"},
      {"measurement": "EC50", "setting": "Vasopressin V1a receptor", "value": "> 10", "unit": "µM"},
      {"measurement": "IC50", "setting": "Vasopressin V1a receptor", "value": "> 10", "unit": "µM"},
      {"measurement": "inhibition", "setting": "[28]", "value": -5.37, "unit": "%"},
      {"measurement": "inhibition", "setting": "[29]", "value": 11.9, "unit": "%"},
      {"measurement": "Ki", "setting": "[30]", "value": "> 10", "unit": "µM"},
      {"measurement": "pKi", "setting": "[30]", "value": "< 5"},
      {"measurement": "IC50", "setting": "[31]", "value": "> 10", "unit": "µM"},
      {"measurement": "inhibition", "setting": "[32]", "value": 4.09, "unit": "%"},
      {"measurement": "EC50", "setting": "[33]", "value": "> 10", "unit": "µM"},
      {"measurement": "IC50", "setting": "[33]", "value": "> 10", "unit": "µM"},
      {"measurement": "EC50", "setting": "Androgen receptor", "value": "> 10", "unit": "µM"},
      {"measurement": "IC50", "setting": "Androgen receptor", "value": "> 10", "unit": "µM"},
      {"measurement": "IC50", "setting": "[34]", "value": "> 10", "unit": "µM"},
      {"measurement": "EC50", "setting": "[35]", "value": "> 9.6 µM (not active)"},
      {"measurement": "inhibition", "setting": "Mu-type opioid receptor [36]", "value": 0.85, "unit": "%"},
      {"measurement": "IC50", "setting": "[37]", "value": "> 10", "unit": "µM"},
      {"measurement": "inhibition", "setting": "[38]", "value": -1.62, "unit": "%"},
      {"measurement": "EC50", "setting": "[39]", "value": "> 10", "unit": "µM"},
      {"measurement": "IC50", "setting": "[39]", "value": "> 10", "unit": "µM"},
      {"measurement": "inhibition", "setting": "[40]", "value": 10.9, "unit": "%"}
    ]}
  ]
}
